Measurements published in paper PMC10424242, “Macrocyclic Peptidomimetic Plasmepsin X Inhibitors with Potent In Vitro and In Vivo Antimalarial Activity” (Journal of Medicinal Chemistry, 2023).

Tests used:
[1] = molecular target: cathepsin D (CatD) (Homo sapiens, UniProt P07339); assay: FRET-based CatD inhibition assay (selectivity counter screen); type: biochemical
Method: (§1) A fluorescence resonance energy transfer (FRET)-based assay was performed to assess the ability of the compounds to inhibit PMIV, CatD, and BACE1. Serial dilutions of test compounds were dispensed in a white 96-well plate. […] The mixture was incubated for 20 min at 37 °C. […] IC50 values were calculated with GraphPad Prism 8.0 using the nonlinear regression, variable slope (four parameters). Compounds were tested in triplicate.

[2] = molecular target: BACE1 (Homo sapiens, UniProt P56817); assay: FRET-based BACE1 inhibition assay (selectivity counter screen); type: biochemical
Chain of BACE1 (P56817 46-501): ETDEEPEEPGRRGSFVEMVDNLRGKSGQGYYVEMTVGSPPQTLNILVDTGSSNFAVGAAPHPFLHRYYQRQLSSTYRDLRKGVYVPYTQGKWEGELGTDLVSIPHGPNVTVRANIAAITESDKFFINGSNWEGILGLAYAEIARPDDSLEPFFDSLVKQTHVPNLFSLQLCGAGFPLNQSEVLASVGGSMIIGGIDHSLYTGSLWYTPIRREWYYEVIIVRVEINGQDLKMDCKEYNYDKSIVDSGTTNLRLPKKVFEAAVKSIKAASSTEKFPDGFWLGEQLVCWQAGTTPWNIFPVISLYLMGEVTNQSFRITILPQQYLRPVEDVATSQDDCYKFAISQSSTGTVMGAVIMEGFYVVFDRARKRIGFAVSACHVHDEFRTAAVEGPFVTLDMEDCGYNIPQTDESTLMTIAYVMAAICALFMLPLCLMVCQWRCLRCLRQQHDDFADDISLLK
Method: as §1

[3] = Pharmacokinetics in mice (plasma, UPLC/MS/MS); type: in vivo; conditions: female, NMRI, mouse, po, p.os 50 mg/kg
Method: Animals were weighed on the day of the treatment (before treatment) to calculate the required amount of compound for the corresponding dose. For tolerability and PK studies, the mice were dosed via a peroral (PO) bolus administration (volume 10 mL/kg).
For the pharmacokinetics experiment, blood samples were collected in tubes containing heparin. […] Tubes were centrifuged at +4 °C 10,000g for 3 min. Plasma samples were collected and stored at −20 °C until analysis.
Concentrations of VAD259 in mouse plasma were measured by ultra-performance liquid chromatography–tandem mass spectrometry using Waters Acquity UPLC H-class chromatograph coupled to the Waters Xevo TQ-S micro mass spectrometer using the Waters Acquity UPLC BEH-C18 column (2.1 mm × 50 mm, 1.7 μm). Mobile phase A was 0.1% aqueous formic acid, and mobile phase B was acetonitrile.
The mass spectrometer was operated in positive electrospray ionization mode (ESI+), and data acquisition was performed in multiple reaction monitoring (MRM) modes with ionization parameters as follows: capillary energy of 3.0 kV, cone voltage of 25 V, and collision energy of 20 eV.
Blood plasma samples were processed using plasma protein precipitation. Then, 20 μL of plasma was mixed with 300 μL of acetonitrile/methanol (3:1/v:v) mixture, and the sample was centrifuged at 1000g for 10 min. The supernatant was further diluted 3 times with 0.1% aqueous formic acid and subjected to UPLC/MS/MS analysis.

[4] = tested on: P. falciparum Pf3D7^0087/N9; assay: In vivo efficacy against P. falciparum in the TAD PfalcHuMouse model
Method: Therapeutic efficacy studies were performed at TAD using a standardized humanized mouse model of P. falciparum malaria[31] with modifications.[34] […] The volume of injections was 1 and 0.7 mL for i.p. or i.v. inoculation, respectively.
The inoculum was obtained from peripheral blood of CO2-euthanized donor mice harboring 5–10% parasitemia.
Before drug administration, each infected mouse was randomly assigned to its corresponding treatment. […] The treatment was administered by oral gavage with 20G straight reusable feeding needles (Fine Science Tools GmbH) at 10 mL·kgbodyweight^–1 unless otherwise stated.
Parasitemia was measured in serial 2 μL of samples of tail blood by flow cytometry and expressed as the % of parasitized erythrocytes with respect to the total erythrocytes in circulation.
The clearance of parasitized erythrocytes from the peripheral blood of mice was assessed by measuring the parasite reduction ratio (PRR) calculated as the ratio between parasitemia at Day n + 2 divided by parasitemia at Day n for each individual of the study.
The parasiticidal effect of drugs in vivo was assessed by measuring the day of recrudescence (DoR) as described.[34] In short, DoR was defined as the day at which parasitemia after drug treatment reached the % parasitemia at treatment inception. Drug-treated mice were deemed cured if there was no detectable parasitemia 60 days after treatment.

[5] = Drug blood concentrations in PfalcHuMice during efficacy testing; type: in vivo; conditions: for total Cmin: PfalcHuMouse, 40 mg/kg p.o.
Method: The concentrations of drugs were measured in samples of peripheral blood (25 μL) taken at different times after the first dosing, mixed with 25 μL of Milli-Q H2O, and immediately frozen on a thermal block at −80 °C. The frozen samples were stored at −80 °C until analysis. Blood from control humanized mice was used for the preparation of standard curves, calibration, and quality control purposes. The drugs were extracted from 10 μL of lysates obtained by protein precipitation of blood samples using standard liquid–liquid extraction methods. The samples were analyzed by LC-MS/MS for quantification in a Waters Micromass UPLC-TQD (Waters, Manchester, U.K.). Blood concentration vs time was analyzed by non-compartmental analysis (NCA) using Phoenix WinNonlin vers.9.2 (Certara) or R or Excel (Microsoft), from which exposure-related values (tmax, Cmax, and AUC0–t) were estimated.

[6] = tested on: P. falciparum 3D7 parasites; assay: Microscopy of synchronized P. falciparum cultures treated from ring stage (development and egress); type: cell-based; conditions: 20 nM
Method: Asexual blood-stage forms of P. falciparum strains 3D7 and Dd2 were maintained at 37 °C in an atmosphere of 1% O2, 5% CO2, and 94% N2 in human RBCs in RPMI 1640 medium containing AlbuMAX II (Thermo Fisher Scientific) and supplemented with 2 mM L-glutamine. The synchronization of parasite cultures was as described previously.[39] Briefly, this involved isolating mature schizont forms by centrifugation over cushions of 70% (v/v) isotonic Percoll (GE Healthcare, Life Sciences) and then allowing the parasites to undergo rupture in the presence of fresh RBCs for 2 h under gentle shaking conditions (100 rpm). Residual schizonts were then removed through a second Percoll separation, followed by treatment with 5% (w/v) sorbitol to finally obtain a highly synchronized preparation of newly invaded ring-stage parasites.
Growth stage progression and parasite morphology were also monitored by microscopic examination at selected time points using Giemsa-stained thin blood films.

[7] = tested on: maturation of the PMX substrate SUB1 (p54 to p47); assay: Western blot of SUB1 maturation in treated schizonts; type: cell-based, P. falciparum; conditions: 20 nM, 44 h
Method: This phenotype is characteristic of the inhibition of PMX.
Synchronous parasite cultures were cultured from ring to schizont stage (∼44 h) in the presence of DMSO alone (0.04% v/v; control) or macrocycle compounds (20 nM final concentration). Schizonts were isolated by Percoll enrichment (still in the presence of the test compound), then either immediately frozen or further incubated in the absence of the drug but in the presence of C2 (1 μM) for 1 h at 37°C in the absence of added RBCs or for 3.5 h in the presence of added RBCs. The schizonts without added RBCs were then frozen too, and all schizont samples were then thawed into CHAPS–urea extraction buffer, subjected to sodium dodecyl sulfate-polyacrylamide gel electrophoresis (SDS-PAGE), and analyzed by Western blot, probing with antibodies against SUB1 or RAP1. For schizonts cultured in the presence of added RBCs, ring formation was assessed in two ways: cultures were examined microscopically by Giemsa stain of thin films and were also fixed with glutaraldehyde and processed for quantification of ring formation by flow cytometry as described above.

Chain of cathepsin D (CatD) (P07339 65-412): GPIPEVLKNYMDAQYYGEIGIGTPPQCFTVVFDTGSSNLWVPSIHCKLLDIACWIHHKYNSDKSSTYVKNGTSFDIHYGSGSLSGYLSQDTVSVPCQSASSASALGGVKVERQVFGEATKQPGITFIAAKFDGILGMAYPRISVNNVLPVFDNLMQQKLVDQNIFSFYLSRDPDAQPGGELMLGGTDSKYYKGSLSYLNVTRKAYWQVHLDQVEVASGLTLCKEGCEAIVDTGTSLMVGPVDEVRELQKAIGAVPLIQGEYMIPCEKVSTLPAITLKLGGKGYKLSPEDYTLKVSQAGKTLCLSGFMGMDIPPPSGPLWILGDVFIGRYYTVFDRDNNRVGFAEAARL

CCCN1CCCCCc2cccc(c2)C[C@@H]([C@H](O)CNC(C)(C)c2cccc(OC)c2)NC(=O)c2cccc(c2)C1=O [7k, (S)-4-((R)-1-Hydroxy-2-((2-(3-methoxyphenyl)propan-2-yl)amino)ethyl)-12-propyl-3,12-diaza-1,6(1,3)-dibenzenacyclotridecaphane-2,13-dione]
IC50 [1]: 330 ± 20 nM | IC50 [2]: 2030 ± 100 nM | AUC(0-t) at 6 h [3]: 218 ng·h/mL | Cmax at 6 h [3]: 64 ng/mL | Tmax at 6 h [3]: 60 min | half-life at 6 h [3]: 53 min | AUC(0-inf) at 6 h ([3]; read-out: AUC0-inf_obs): 222 ng·h/mL | clearance of parasitemia from peripheral blood ([4]; 40 mg/kg p.o., UID, BID or TID): cleared parasitemia from the peripheral blood in a dose-dependent manner | parasite clearance rate compared with chloroquine ([4]; chloroquine at 10 mg/kg for 2 days in the same system): comparable to those produced by chloroquine at 10 mg/kg for 2 days | parasite killing in vivo (DoR versus exposure) compared with chloroquine ([4]; comparable treatment regimens, chloroquine historical data): as potent as chloroquine | distribution of parasite stages in peripheral blood ([4]; day 3 of the assay, flow cytometry and microscopy): relative accumulation of circulating mature schizonts compared to untreated controls | effect on parasite burden ([4]; three times a day for 4 days at 40 mg/kg, oral): eliminated P. falciparum from peripheral blood at a rate comparable to chloroquine single-dose administration for 2 days (10 mg/kg) | total Cmin ([5]; BID): 32 ng/mL | total Cmin ([5]; TID): 85 ng/mL | total Cmin ([5]; UID): 51 ng/mL | pharmacokinetic modeling of concentrations over the period of administration ([5]; plasma concentration at 71.0, 72.5, 73.0 and 78.0 hours post-treatment): rapid absorption with no accumulation | intraerythrocytic development of ring-stage parasites to schizont stage ([6]; 44 h): Development of ring-stage parasites to the multinucleated schizont stage occurred similarly in all cultures | schizont rupture (egress) and appearance of new rings ([6]; 44 h and extended incubation): schizont rupture and appearance of new rings did not occur | maturation of SUB1 (p54 to p47) [7]: clear defect in maturation of the PMX substrate SUB1
